Measurements reported in patent publication US11628199B2, “Medicine for combined use in cancer treatment” (SICHUAN JIUZHANG BIOLOGICAL SCIENCE AND TECHNOLOGY CO., LTD, priority 2017, dated 2023).
Where a SMILES comes first, the peptide text is derived from it. [ ]: non-standard residue; d: D form. The star is where a group is joined. dPhe(4-NHCONH2) = NC(=O)Nc1ccc(C[C@@H](N)C(=O)O)cc1; Dihydroorotyl(S) = O=C1C[C@@H](C(=O)*)NC(=O)N1; dPhe(4-Cl) = N[C@H](Cc1ccc(Cl)cc1)C(=O)O; Phe(4-NH2) = Nc1ccc(C[C@H](N)C(=O)O)cc1; d2Nal = N[C@H](Cc1ccc2ccccc2c1)C(=O)O; Lys(iPr) = CC(C)NCCCC[C@H](N)C(=O)O; NMeY = CN[C@@H](Cc1ccc(O)cc1)C(=O)O; d3Pal = N[C@H](Cc1cccnc1)C(=O)O

Experiments:
[1] = test system: drug-resistant RM-1 mouse prostate cancer cell lines (abarelix-induced); assay: In vivo mouse xenograft tumor of drug-resistant RM-1 prostate cancer, chlorogenic acid combined with abarelix; settings: for Tumor weight: x ± s; for inhibitory rate of mouse xenograft tumor of drug-resistant RM-1 prostate cancer (in words): groups and doses as in Table 3
Description: Test drug: chlorogenic acid, abarelix.
Test cell lines: RM-1 mouse prostate cancer cell lines. RM-1 cell lines were induced by increasing concentration gradient of aberlix and established by clone and screen. Prior to experiment, cell lines were cultured without drug.
Test animals: Kunming mice, ♂, weight 17-24 g.
Drug-resistant cell lines after removal of drug were adjusted to the concentration of 1×10^7/mL with culture medium, and inoculated under the right anterior armpit of mice at 0.1 ml/mouse.
After the mean diameter of tumor reached 100 mm^3, mice were divided into 4 groups, i.e. abarelix group, chlorogenic acid+abarelix group, chlorogenic acid group, and the negative control group, respectively.
Abarelix group: intraperitoneal injection, once every seven days, 15 mg/kg, two doses in total.
chlorogenic acid+abarelix group: chlorogenic acid was intraperitoneally injected, once every day, 10 mg/kg, continuous administration for 5 days; After withdrawal of chlorogenic acid, abarelix was intraperitoneally injected on the next day, once every 7 days, 15 mg/kg, two doses in total.
Chlorogenic acid group: intraperitoneal injection, once every day, 10 mg/kg, continuous administration for 5 days; after that, saline was intraperitoneally injected, once every day, continuing 10 days.
Negative control group: intraperitoneal injection of saline, once every day, continuing 15 days.
After completion of administration, the experiment was stopped, and mice were sacrificed by cervical dislocation and weighed. The tumors were removed and weighed to calculate the tumor inhibitory rate.

[2] = test system: RM-1 mouse prostate cancer cell lines; assay: In vivo mouse xenograft tumor of RM-1 prostate cancer, chlorogenic acid combined with abarelix or degarelix
Description: Test drug: chlorogenic acid, abarelix, degarelix.
Test cell lines: RM-1 mouse prostate cancer cell lines.
(§1) Cells in exponential phase of growth were taken out, digested with trypsin to […], and then cell suspension was prepared by addition of saline.
When the tumor volume in the negative group was about 0.5 cm^3, the experiment was stopped. The mice were sacrificed by cervical dislocation and weighed. The tumors were removed and weighed to calculate the tumor inhibitory rate.

[3] = test system: EMT-6 mouse breast cancer cell lines; assay: In vivo mouse xenograft tumor of EMT-6 breast cancer, chlorogenic acid combined with fulvestrant
Description: Test drug: chlorogenic acid, fulvestrant.
Test cell lines: EMT-6 mouse breast cancer cell lines.
as §1
Fulvestrant group received drug once by intraperitoneal injection on the next day after inoculation; chlorogenic acid group received drug once every day by intraperitoneal injection from the next day after inoculation, and the drug was successively administrated 15 times; combined medicine group received intraperitoneal injection of fulvestrant once on the next day after inoculation, and intraperitoneal injection of chlorogenic acid once every day from the next day after inoculation; the negative control group received saline by intraperitoneal injection once every day from the next day after inoculation, and saline was continuously given 15 times. When the tumor volume in the negative group was about 0.5 cm^3, the experiment was stopped. The mice were sacrificed by cervical dislocation and weighed. The tumors were removed and weighed to calculate the tumor suppression rate.
(2) If both drugs are combined, Q=E(a+b)/(Ea+Eb−Ea×Eb), in which E(a+b) is the inhibition rate for the combination of two drugs, i.e. the tested combined effect; Ea and Eb is respectively the inhibition rates of two drugs when they are separately used; the denominator (Ea+Eb−Ea×Eb) is the expected combined effect.

[4] = abarelix 15 mg·kg^−1 i.p. once every seven days, two doses
[5] = fulvestrant 40 mg·kg^−1 i.p. once
[6] = chlorogenic acid 10 mg·kg^−1 i.p. once daily, 15 times
[7] = chlorogenic acid 20 mg·kg^−1 i.p. once daily, 15 times
[8] = chlorogenic acid 40 mg·kg^−1 i.p. once daily, 15 times
[9] = degarelix 30 mg·kg^−1 s.c. once

In the case of `CC(=O)N[C@H](Cc1ccc2ccccc2c1)C(=O)N[C@H](Cc1ccc(Cl)cc1)C(=O)N[C@H](Cc1cccnc1)C(=O)N[C@@H](CO)C(=O)N(C)[C@@H](Cc1ccc(O)cc1)C(=O)N[C@H](CC(N)=O)C(=O)N[C@@H](CC(C)C)C(=O)N[C@@H](CCCCNC(C)C)C(=O)N1CCC[C@H]1C(=O)N[C@H](C)C(N)=O` [Abarelix, abarelix] (Ac-[d2Nal][dPhe(4-Cl)][d3Pal]S[NMeY][dN]L[Lys(iPr)]P[dA]-NH2), the Tumor inhibitory rate [1, 4] is reported as 4.84%, the Tumor weight [1, 4] is reported as 2.339 ± 0.614 g and the “inhibitory rate of mouse xenograft tumor of drug-resistant RM-1 prostate cancer (in words)” value [1] is reported as “weaker, without obvious suppression effect”. It also gave a Tumor inhibitory rate ([2]; abarelix 15 mg·kg^−1 i.p. once) of 42.73% and a Tumor weight ([2]; abarelix 15 mg·kg^−1 i.p. once) of 0.886 ± 0.521 g.
`C[C@]12CC[C@@H]3c4ccc(O)cc4C[C@@H](CCCCCCCCC[S+]([O-])CCCC(F)(F)C(F)(F)F)[C@H]3[C@@H]1CC[C@@H]2O` (stereo partly drawn) [Fulvestrant, fulvestrant] showed a Tumor inhibitory rate [3, 5] of 43.40% and a Tumor weight [3, 5] of 0.746 ± 0.311 g.
For `O=C(/C=C/c1ccc(O)c(O)c1)O[C@@H]1C[C@](O)(C(=O)O)C[C@@H](O)[C@H]1O` [chlorogenic acid, 3-o-caffeoylquinic acid], the Tumor inhibitory rate [3, 6] was 31.94%, the Tumor weight ([3]; chlorogenic acid 10 mg·kg^−1 i.p. once daily, 15 times, BALB/C-nu mice) was 0.897 ± 0.346 g and the Tumor inhibitory rate [3, 7] was 36.95%. The Tumor weight ([3]; chlorogenic acid 20 mg·kg^−1 i.p. once daily, 15 times, BALB/C-nu mice) was 0.831 ± 0.221 g, the Tumor inhibitory rate [3, 8] was 42.03% and the Tumor weight ([3]; chlorogenic acid 40 mg·kg^−1 i.p. once daily, 15 times, BALB/C-nu mice) was 0.764 ± 0.539 g. For the same compound, the Tumor inhibitory rate ([1]; chlorogenic acid 10 mg·kg^−1 i.p. once daily for 5 days) was 8.41%, the Tumor weight ([1]; chlorogenic acid 10 mg·kg^−1 i.p. once daily for 5 days, then saline 10 days) was 2.251 ± 0.581 g and the “inhibitory rate of mouse xenograft tumor of drug-resistant RM-1 prostate cancer (in words)” value [1] was “weaker, without obvious suppression effect”. It also gave a Tumor inhibitory rate [2, 6] of 24.05%, a Tumor weight ([2]; chlorogenic acid 10 mg·kg^−1 i.p. once daily, 15 times, Kunming mice) of 1.175 ± 0.117 g and a Tumor inhibitory rate [2, 7] of 27.86%. The Tumor weight ([2]; chlorogenic acid 20 mg·kg^−1 i.p. once daily, 15 times, Kunming mice) was 1.116 ± 0.358 g, the Tumor inhibitory rate [2, 8] was 28.57% and the Tumor weight ([2]; chlorogenic acid 40 mg·kg^−1 i.p. once daily, 15 times, Kunming mice) was 1.105 ± 0.641 g.
`CC(=O)N[C@H](Cc1ccc2ccccc2c1)C(=O)N[C@H](Cc1ccc(Cl)cc1)C(=O)N[C@H](Cc1cccnc1)C(=O)N[C@@H](CO)C(=O)N[C@@H](Cc1ccc(NC(=O)[C@@H]2CC(=O)NC(=O)N2)cc1)C(=O)N[C@H](Cc1ccc(NC(N)=O)cc1)C(=O)N[C@@H](CC(C)C)C(=O)N[C@@H](CCCCNC(C)C)C(=O)N1CCC[C@H]1C(=O)N[C@H](C)C(N)=O` [Degarelix, degarelix] (Ac-[d2Nal][dPhe(4-Cl)][d3Pal]S[Phe(4-NH2)](Dihydroorotyl(S))[dPhe(4-NHCONH2)]L[Lys(iPr)]P[dA]-NH2) gave a Tumor inhibitory rate [2, 9] of 50.61% and a Tumor weight [2, 9] of 0.764 ± 0.218 g.
